Reference: US20110301137A1 (APEX LABORATORIES PRIVATE LIMITED, priority 2009, published 2011)
Read-outs that look alike come from different tables or passages of the source.

Assay type: physicochemical
Details: for degradation of the API: 3 months; for Initial (%): at time of receipt of the API from the supplier

Row | degradation of the API | Initial (%) (Fusidic Acid BP) | Initial (%) (Sodium Fusidate BP) | Compound
1 | 7.7-11% | 100.6% | – | CC(=O)O[C@H]1C[C@@]2(C)[C@@H](C[C@@H](O)[C@H]3[C@@]4(C)CC[C@@H](O)[C@@H](C)[C@@H]4CC[C@@]32C)/C1=C(\CCC=C(C)C)C(=O)O [Fusidic Acid, Fusidic acid]
2 | 2.45-6% | – | 98.7% | CC(=O)O[C@H]1C[C@@]2(C)[C@@H](C[C@@H](O)[C@H]3[C@@]4(C)CC[C@@H](O)[C@@H](C)[C@@H]4CC[C@@]32C)/C1=C(\CCC=C(C)C)C(=O)O [Sodium Fusidate]
